From PubChem BioAssay (NCI)
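GI50 = concentration required for 50% inhibition of growth. At the TGI there is no net growth.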

How the values were obtained:
Assay in all cases: NCI tumour cell line growth inhibition, 384-well format
[1] = tested on: SNB-75 CNS
[2] = tested on: OVCAR-8 ovarian
[3] = tested on: MDA-MB-435 melanoma
[4] = tested on: HT29 colon
[5] = tested on: NCI-H460 NSCLC
[6] = tested on: OVCAR-3 ovarian
[7] = tested on: PC-3 prostate
[8] = tested on: HOP-62 NSCLC
[9] = tested on: SK-MEL-28 melanoma
[10] = tested on: ACHN renal
[11] = tested on: IGROV1 ovarian
[12] = tested on: HS 578T breast
[13] = tested on: SNB-19 CNS
[14] = tested on: OVCAR-4 ovarian
[15] = tested on: SF-268 CNS
[16] = tested on: CAKI-1 renal
[17] = tested on: NCI-H322M lung
[18] = tested on: MALME-3M melanoma
[19] = tested on: HOP-92 NSCLC
[20] = tested on: NCI-H226 lung
[21] = tested on: SF-295 CNS
[22] = tested on: TK-10 renal
[23] = tested on: SF-539 CNS
[24] = tested on: SK-OV-3 ovarian
[25] = tested on: HCT-15 colon
[26] = tested on: SR leukemia
[27] = tested on: NCI/ADR-RES ovarian
[28] = tested on: 786-0 renal
[29] = tested on: MDA-MB-468 breast
[30] = tested on: SN12C renal
[31] = tested on: MCF7 breast
[32] = tested on: HCC-2998 colon
[33] = tested on: CCRF-CEM leukemia
[34] = tested on: A549 NSCLC
[35] = tested on: EKVX NSCLC
[36] = tested on: LOX IMVI melanoma
[37] = tested on: UACC-257 melanoma
[38] = tested on: BT-549 breast
[39] = tested on: NCI-H522 lung
[40] = tested on: HL-60(TB) leukemia
[41] = tested on: SK-MEL-5 melanoma
[42] = tested on: OVCAR-5 ovarian
[43] = tested on: SW-620 colon
[44] = tested on: M14 melanoma
[45] = tested on: COLO 205 colon
[46] = tested on: RXF 393 renal
[47] = tested on: KM12 colon
[48] = tested on: K-562 leukemia
[49] = tested on: RPMI-8226 leukemia
[50] = tested on: A498 renal
[51] = tested on: T-47D breast
[52] = tested on: MOLT-4 leukemia
[53] = tested on: UACC-62 melanoma
[54] = tested on: DU-145 prostate
[55] = tested on: UO-31 renal
[56] = tested on: NCI-H23 lung
[57] = tested on: MDA-MB-231 breast

Q: How did the GI50 [1] turn out when `Cc1cc(-c2ccc(C3C(C#N)=C(N)Oc4c3c(=O)oc3ccccc43)cc2)cnc1F` (centres undefined) was run?
A: The GI50 was 40.9 µM.

Q: What about the TGI [1] of the same compound?
A: Its TGI is over 100 µM.

Q: What about the GI50 [2] of the same compound?
A: The GI50 was 38.5 µM.

Q: What about the TGI [2] of the same compound?
A: The TGI was over 100 µM.

Q: What about the GI50 [3] of the same compound?
A: Its GI50 is 89 µM.

Q: And the TGI [3]?
A: The TGI was over 100 µM.

Q: What about the GI50 [4] of the same compound?
A: The GI50 was 25.1 µM.

Q: What about the TGI [4] of the same compound?
A: The TGI was 65 µM.

Q: And the GI50 [5]?
A: The GI50 was 37.1 µM.

Q: What about the TGI [5] of the same compound?
A: The TGI was over 100 µM.

Q: And the GI50 [6]?
A: The GI50 was 26.7 µM.

Q: And the TGI [6]?
A: Its TGI is 57.1 µM.

Q: And the GI50 [7]?
A: Its GI50 is 53.1 µM.

Q: And the TGI [7]?
A: Its TGI is over 100 µM.

Q: What about the GI50 [8] of the same compound?
A: The GI50 was 34.7 µM.

Q: What about the TGI [8] of the same compound?
A: Its TGI is over 100 µM.

Q: What about the GI50 [9] of the same compound?
A: Its GI50 is over 100 µM.

Q: What about the TGI [9] of the same compound?
A: The TGI was over 100 µM.

Q: What about the GI50 [10] of the same compound?
A: Its GI50 is 42.6 µM.

Q: What about the TGI [10] of the same compound?
A: The TGI was over 100 µM.

Q: What about the GI50 [11] of the same compound?
A: The GI50 was 42.5 µM.

Q: What about the TGI [11] of the same compound?
A: Its TGI is over 100 µM.

Q: What about the GI50 [12] of the same compound?
A: Its GI50 is 29.1 µM.

Q: What about the TGI [12] of the same compound?
A: Its TGI is 79.9 µM.

Q: What about the GI50 [13] of the same compound?
A: The GI50 was 62.9 µM.

Q: What about the TGI [13] of the same compound?
A: The TGI was over 100 µM.

Q: What about the GI50 [14] of the same compound?
A: Its GI50 is 33.9 µM.

Q: And the TGI [14]?
A: Its TGI is over 100 µM.

Q: What about the GI50 [15] of the same compound?
A: The GI50 was 50.1 µM.

Q: And the TGI [15]?
A: Its TGI is over 100 µM.

Q: What about the GI50 [16] of the same compound?
A: Its GI50 is 43.6 µM.

Q: What about the TGI [16] of the same compound?
A: Its TGI is over 100 µM.

Q: What about the GI50 [17] of the same compound?
A: The GI50 was 25.4 µM.

Q: And the TGI [17]?
A: The TGI was 67 µM.

Q: What about the GI50 [18] of the same compound?
A: Its GI50 is 47.7 µM.

Q: What about the TGI [18] of the same compound?
A: The TGI was over 100 µM.

Q: And the GI50 [19]?
A: Its GI50 is 13.9 µM.

Q: What about the TGI [19] of the same compound?
A: Its TGI is 39.7 µM.

Q: And the GI50 [20]?
A: Its GI50 is 18.4 µM.

Q: What about the TGI [20] of the same compound?
A: The TGI was 59.3 µM.

Q: And the GI50 [21]?
A: Its GI50 is 46.9 µM.

Q: What about the TGI [21] of the same compound?
A: Its TGI is over 100 µM.

Q: What about the GI50 [22] of the same compound?
A: Its GI50 is 30.3 µM.

Q: And the TGI [22]?
A: The TGI was 82.1 µM.

Q: What about the GI50 [23] of the same compound?
A: The GI50 was 24.8 µM.

Q: And the TGI [23]?
A: The TGI was 55.6 µM.

Q: What about the GI50 [24] of the same compound?
A: The GI50 was 45.9 µM.

Q: What about the TGI [24] of the same compound?
A: The TGI was over 100 µM.

Q: What about the GI50 [25] of the same compound?
A: Its GI50 is 18.9 µM.

Q: And the TGI [25]?
A: Its TGI is 39.3 µM.

Q: What about the GI50 [26] of the same compound?
A: The GI50 was 17.1 µM.

Q: What about the TGI [26] of the same compound?
A: Its TGI is 32.2 µM.

Q: And the GI50 [27]?
A: The GI50 was 40 µM.

Q: What about the TGI [27] of the same compound?
A: Its TGI is over 100 µM.

Q: What about the GI50 [28] of the same compound?
A: The GI50 was 43.2 µM.

Q: And the TGI [28]?
A: Its TGI is over 100 µM.

Q: What about the GI50 [29] of the same compound?
A: The GI50 was 24 µM.

Q: And the TGI [29]?
A: The TGI was 49.2 µM.

Q: And the GI50 [30]?
A: The GI50 was 47.7 µM.

Q: What about the TGI [30] of the same compound?
A: The TGI was over 100 µM.

Q: And the GI50 [31]?
A: The GI50 was 38 µM.

Q: What about the TGI [31] of the same compound?
A: Its TGI is over 100 µM.

Q: What about the GI50 [32] of the same compound?
A: Its GI50 is 29.7 µM.

Q: What about the TGI [32] of the same compound?
A: The TGI was 80.3 µM.

Q: And the GI50 [33]?
A: The GI50 was 17.5 µM.

Q: And the TGI [33]?
A: Its TGI is 33.7 µM.

Q: And the GI50 [34]?
A: The GI50 was 54.5 µM.

Q: And the TGI [34]?
A: The TGI was over 100 µM.

Q: What about the GI50 [35] of the same compound?
A: The GI50 was 43.7 µM.

Q: What about the TGI [35] of the same compound?
A: Its TGI is over 100 µM.

Q: And the GI50 [36]?
A: Its GI50 is 21.9 µM.

Q: What about the TGI [36] of the same compound?
A: The TGI was 45.4 µM.

Q: What about the GI50 [37] of the same compound?
A: The GI50 was 58.1 µM.

Q: What about the TGI [37] of the same compound?
A: Its TGI is over 100 µM.

Q: And the GI50 [38]?
A: Its GI50 is 27.9 µM.

Q: And the TGI [38]?
A: Its TGI is over 100 µM.

Q: And the GI50 [39]?
A: The GI50 was 17.5 µM.

Q: And the TGI [39]?
A: Its TGI is 35.4 µM.

Q: And the GI50 [40]?
A: The GI50 was 24.7 µM.

Q: And the TGI [40]?
A: Its TGI is 44.9 µM.

Q: What about the GI50 [41] of the same compound?
A: Its GI50 is 29.8 µM.

Q: What about the TGI [41] of the same compound?
A: Its TGI is 78.1 µM.

Q: And the GI50 [42]?
A: The GI50 was 37.4 µM.

Q: What about the TGI [42] of the same compound?
A: Its TGI is over 100 µM.

Q: What about the GI50 [43] of the same compound?
A: Its GI50 is 58.3 µM.

Q: And the TGI [43]?
A: Its TGI is over 100 µM.

Q: What about the GI50 [44] of the same compound?
A: Its GI50 is 90.2 µM.

Q: And the TGI [44]?
A: Its TGI is over 100 µM.

Q: What about the GI50 [45] of the same compound?
A: The GI50 was 64.6 µM.

Q: And the TGI [45]?
A: The TGI was over 100 µM.

Q: And the GI50 [46]?
A: The GI50 was 17.4 µM.

Q: What about the TGI [46] of the same compound?
A: The TGI was 32.2 µM.

Q: And the GI50 [47]?
A: Its GI50 is over 100 µM.

Q: What about the TGI [47] of the same compound?
A: The TGI was over 100 µM.

Q: What about the GI50 [48] of the same compound?
A: Its GI50 is 33.9 µM.

Q: What about the TGI [48] of the same compound?
A: The TGI was over 100 µM.

Q: What about the GI50 [49] of the same compound?
A: The GI50 was 14 µM.

Q: And the TGI [49]?
A: The TGI was 33.5 µM.

Q: What about the GI50 [50] of the same compound?
A: The GI50 was 31.3 µM.

Q: What about the TGI [50] of the same compound?
A: The TGI was over 100 µM.

Q: What about the GI50 [51] of the same compound?
A: Its GI50 is 46.4 µM.

Q: What about the TGI [51] of the same compound?
A: The TGI was over 100 µM.

Q: What about the GI50 [52] of the same compound?
A: Its GI50 is 15 µM.

Q: And the TGI [52]?
A: Its TGI is 28.4 µM.

Q: And the GI50 [53]?
A: Its GI50 is 40.1 µM.

Q: What about the TGI [53] of the same compound?
A: Its TGI is over 100 µM.

Q: And the GI50 [54]?
A: The GI50 was 39.3 µM.

Q: What about the TGI [54] of the same compound?
A: The TGI was over 100 µM.

Q: What about the GI50 [55] of the same compound?
A: Its GI50 is 30.1 µM.

Q: What about the TGI [55] of the same compound?
A: The TGI was over 100 µM.

Q: And the GI50 [56]?
A: Its GI50 is 29.6 µM.

Q: What about the TGI [56] of the same compound?
A: Its TGI is over 100 µM.

Q: And the GI50 [57]?
A: The GI50 was 39.7 µM.

Q: And the TGI [57]?
A: Its TGI is over 100 µM.
